Measured values published in patent US20100210589A1, “METHOD FOR IMPROVING HEPATIC FUNCTION” (Kabushiki Kaisha Kayashibara Seibutsu Kagaku Kenkyujo, priority 2004, published 2010).

Tested on: golden hamsters
Experiment: Administration test of α-glucosyl-hesperidin on hamsters (serum GOT and GPT, cholesterol-supplemented feed)
Assay type: in vivo, golden hamster
Conditions: compared with hesperidin at equal molar dose
Experimental: The animal experiment using hamsters was performed to investigate the influences of the intake of α-glucosyl-hesperidin on hepatic functions.
A group of five golden hamsters of five weeks old was fed on liberal amount of “NMF Lab Animal Diet Powder” (produced by Oriental Yeast Co., Ltd.) with the administration of “αG-HESPERIDINPS®” (a powdery α-glucosyl-hesperidin containing […] of α-glucosyl-hesperidin, commercialized by Hayashibara Shoji, Inc.) dissolved in distilled water. α-Glucosyl-hesperidin was administered to the hamsters through a stomach sonde at a dose of 0.25 mmole (193 mg)/kg/body weight every day. After two-week administrations of α-glucosyl-hesperidin, the hamsters were fed for additional three weeks in the same way as described above except that their feed was supplemented with 1% by weight of cholesterol. At four hours after the final administrations, the hamsters were anesthetized and underwent laparotomy, and their large-venous blood samples were taken. After the separation of the hamsters' serums by a conventional method, the levels of GOT and GPT were measured. […] The other group was fed on liberal amount of “NMF Lab Animal Diet Powder” with no administration of the test articles and their blood samples were taken in the same way as describe above, and the serum levels of GOT and GPT were measured to obtain the data before the administrations.

With COc1ccc(C2CC(=O)c3c(O)cc(O[C@@H]4OC(CO[C@@H]5OC(C)[C@H](O)C(O)C5O)[C@@H](COC[C@H]5OC(CO)[C@@H](O)C(O)C5O)C(O)C4O)cc3O2)cc1O (stereo partly drawn) [α-Glucosyl-hesperidin, α-glucosyl-hesperidin] the “effect for keeping hepatic-function indexes (serum GOT, GPT) at a lower level” value was “greater effect than that of hesperidin”.
